Reference: article PMC13020021 (International Journal for Parasitology: Drugs and Drug …, 2026)
Entries after “also recorded” stand apart in the source; their conditions may differ.

Key:
natural TRPMPZQ variants = experiment: Ca2+ reporter assay, entire natural variation collection; assay type: cell-based, Schistosoma mansoni; settings: mean ± sd
Fasciola spp. TRPMPZQ = Fasciola spp. TRPMPZQ ref Park et al., 2021; cited from earlier work
[1] = tested on: TRPMPZQ of pseudophyllidean cestodes; settings: binding pocket variation of pseudophyllidean cestodes ref Sprague et al., 2025; cited from earlier work

O=C(C1CCCCC1)N1CC(=O)N2CCc3ccccc3C2C1 (racemic) [(±)-PZQ, praziquantel]
average RA of the entire natural variation collection (natural TRPMPZQ variants): 1.2 ± 0.55
sensitivity of TRPMPZQ to PZQ (Fasciola spp. TRPMPZQ): insensitivity; also recorded: refractory
sensitivity to PZQ [1]: micromolar range
